# Results from PubChem BioAssay AID1259407 (Chemical Carcinogenesis Research Information System (CCRIS), 2018).
# Calls of active or inactive are those of the source. How the calls were made is not given here.
# Tested on: CCRIS mutagenicity, Ames/micronucleus/aberration tests
# Experiment: CCRIS mutagenicity studies
# [1] = Test System: AMES SALMONELLA TYPHIMURIUM, Strain/Indicator: TA98, Metabolic Activation: NONE, Method: PREINCUBATION
# [2] = Test System: AMES SALMONELLA TYPHIMURIUM, Strain/Indicator: TA100, Metabolic Activation: NONE, Method: PREINCUBATION
# [3] = Test System: AMES SALMONELLA TYPHIMURIUM, Strain/Indicator: TA1535, Metabolic Activation: NONE, Method: PREINCUBATION
# [4] = Test System: AMES SALMONELLA TYPHIMURIUM, Strain/Indicator: TA1537, Metabolic Activation: NONE, Method: PREINCUBATION
smiles,measurement,setting,value
CCOc1ccc(N=Nc2ccc(-c3ccc(N=Nc4c(O)ccc5cc(S(=O)(=O)O)cc(S(=O)(=O)O)c45)c(C)c3)cc2C)cc1,mutagenic call,"Test System: AMES SALMONELLA TYPHIMURIUM, Strain/Indicator: TA98, Metabolic Activation: HAMSTER, LIVER, S-9, AROCLOR 1254 (10%), Method: PREINCUBATION",inactive; negative
same,mutagenic call,[1],inactive; negative
same,mutagenic call,"Test System: AMES SALMONELLA TYPHIMURIUM, Strain/Indicator: TA98, Metabolic Activation: RAT, LIVER, S-9, AROCLOR 1254 (10%), Method: PREINCUBATION",inactive; negative
same,mutagenic call,"Test System: AMES SALMONELLA TYPHIMURIUM, Strain/Indicator: TA100, Metabolic Activation: HAMSTER, LIVER, S-9, AROCLOR 1254 (10%), Method: PREINCUBATION",inactive; negative
same,mutagenic call,[2],inactive; negative
same,mutagenic call,"Test System: AMES SALMONELLA TYPHIMURIUM, Strain/Indicator: TA100, Metabolic Activation: RAT, LIVER, S-9, AROCLOR 1254 (10%), Method: PREINCUBATION",inactive; negative
same,mutagenic call,"Test System: AMES SALMONELLA TYPHIMURIUM, Strain/Indicator: TA1535, Metabolic Activation: HAMSTER, LIVER, S-9, AROCLOR 1254 (10%), Method: PREINCUBATION",inactive; negative
same,mutagenic call,[3],inactive; negative
same,mutagenic call,"Test System: AMES SALMONELLA TYPHIMURIUM, Strain/Indicator: TA1535, Metabolic Activation: RAT, LIVER, S-9, AROCLOR 1254 (10%), Method: PREINCUBATION",inactive; negative
same,mutagenic call,"Test System: AMES SALMONELLA TYPHIMURIUM, Strain/Indicator: TA1537, Metabolic Activation: HAMSTER, LIVER, S-9, AROCLOR 1254 (10%), Method: PREINCUBATION",inactive; negative
same,mutagenic call,[4],inactive; negative
same,mutagenic call,"Test System: AMES SALMONELLA TYPHIMURIUM, Strain/Indicator: TA1537, Metabolic Activation: RAT, LIVER, S-9, AROCLOR 1254 (10%), Method: PREINCUBATION",inactive; negative
same,mutagenic call,"Test System: AMES SALMONELLA TYPHIMURIUM, Strain/Indicator: TA1538, Metabolic Activation: RAT, LIVER, S-9, AROCLOR 1254, Method: STANDARD PLATE",active; positive
CO[C@@H]1C[C@](C)(O)Cc2cc3c(c(O)c21)C(=O)c1c(O)cc2c(c1C3=O)O[C@@H]1O[C@@]2(C)[C@H](O)[C@@H](N(C)C)[C@@H]1O,mutagenic call,[1],inactive; negative
same,mutagenic call,"Test System: AMES SALMONELLA TYPHIMURIUM, Strain/Indicator: TA98, Metabolic Activation: RAT LIVER S-9, Method: PREINCUBATION",active; positive
same,mutagenic call,[2],inactive; negative
same,mutagenic call,"Test System: AMES SALMONELLA TYPHIMURIUM, Strain/Indicator: TA100, Metabolic Activation: RAT LIVER S-9, Method: PREINCUBATION",active; positive
same,mutagenic call,[3],inactive; negative
same,mutagenic call,"Test System: AMES SALMONELLA TYPHIMURIUM, Strain/Indicator: TA1535, Metabolic Activation: RAT LIVER S-9, Method: PREINCUBATION",inactive; negative
same,mutagenic call,[4],inactive; negative
same,mutagenic call,"Test System: AMES SALMONELLA TYPHIMURIUM, Strain/Indicator: TA1537, Metabolic Activation: RAT LIVER S-9, Method: PREINCUBATION",active; positive
same,mutagenic call,"Test System: E.COLI, Strain/Indicator: WP2 UVRA, Metabolic Activation: NONE, Method: PREINCUBATION",inactive; negative
same,mutagenic call,"Test System: E.COLI, Strain/Indicator: WP2 UVRA, Metabolic Activation: RAT LIVER S-9, Method: PREINCUBATION",inactive; negative
N,mutagenic call,"End Point: IN VIVO MICRONUCLEUS, Test System: BONE MARROW POLYCHROMATIC ERYTHROCYTES, Species: MOUSE, Strain/Sex: DDY/MALE, Route: IP",inactive; negative
same,mutagenic call,"Test System: AMES SALMONELLA TYPHIMURIUM, Strain/Indicator: TA98, Metabolic Activation: NONE",inactive; negative
same,mutagenic call,[1],inactive; negative
same,mutagenic call,"Test System: AMES SALMONELLA TYPHIMURIUM, Strain/Indicator: TA98, Metabolic Activation: RAT, LIVER, S-9, KC 500",inactive; negative
same,mutagenic call,"Test System: AMES SALMONELLA TYPHIMURIUM, Strain/Indicator: TA98, Metabolic Activation: RAT, LIVER, S-9, KC 500, Method: PREINCUBATION",inactive; negative
same,mutagenic call,"Test System: AMES SALMONELLA TYPHIMURIUM, Strain/Indicator: TA100, Metabolic Activation: NONE",inactive; negative
same,mutagenic call,[2],inactive; negative
same,mutagenic call,"Test System: AMES SALMONELLA TYPHIMURIUM, Strain/Indicator: TA100, Metabolic Activation: RAT, LIVER, S-9, KC 500",inactive; negative
same,mutagenic call,"Test System: AMES SALMONELLA TYPHIMURIUM, Strain/Indicator: TA100, Metabolic Activation: RAT, LIVER, S-9, KC 500, Method: PREINCUBATION",inactive; negative
same,mutagenic call,"Test System: AMES SALMONELLA TYPHIMURIUM, Strain/Indicator: TA1535, Metabolic Activation: NONE",inactive; negative
same,mutagenic call,[3],inactive; negative
same,mutagenic call,"Test System: AMES SALMONELLA TYPHIMURIUM, Strain/Indicator: TA1535, Metabolic Activation: RAT, LIVER, S-9, KC 500",inactive; negative
same,mutagenic call,"Test System: AMES SALMONELLA TYPHIMURIUM, Strain/Indicator: TA1535, Metabolic Activation: RAT, LIVER, S-9, KC 500, Method: PREINCUBATION",inactive; negative
same,mutagenic call,"Test System: AMES SALMONELLA TYPHIMURIUM, Strain/Indicator: TA1537, Metabolic Activation: NONE",inactive; negative
same,mutagenic call,[4],inactive; negative
same,mutagenic call,"Test System: AMES SALMONELLA TYPHIMURIUM, Strain/Indicator: TA1537, Metabolic Activation: RAT, LIVER, S-9, KC 500",inactive; negative
same,mutagenic call,"Test System: AMES SALMONELLA TYPHIMURIUM, Strain/Indicator: TA1537, Metabolic Activation: RAT, LIVER, S-9, KC 500, Method: PREINCUBATION",inactive; negative
same,mutagenic call,"Test System: AMES SALMONELLA TYPHIMURIUM, Strain/Indicator: TA1538, Metabolic Activation: NONE",inactive; negative
same,mutagenic call,"Test System: AMES SALMONELLA TYPHIMURIUM, Strain/Indicator: TA1538, Metabolic Activation: NONE, Method: PREINCUBATION",inactive; negative
same,mutagenic call,"Test System: AMES SALMONELLA TYPHIMURIUM, Strain/Indicator: TA1538, Metabolic Activation: RAT, LIVER, S-9, KC 500",inactive; negative
same,mutagenic call,"Test System: AMES SALMONELLA TYPHIMURIUM, Strain/Indicator: TA1538, Metabolic Activation: RAT, LIVER, S-9, KC 500, Method: PREINCUBATION",inactive; negative
same,mutagenic call,"Test System: E. COLI, Strain/Indicator: WP2 UVRA, Metabolic Activation: NONE",inactive; negative
same,mutagenic call,"Test System: E. COLI, Strain/Indicator: WP2 UVRA, Metabolic Activation: NONE, Method: PREINCUBATION",inactive; negative
same,mutagenic call,"Test System: E. COLI, Strain/Indicator: WP2 UVRA, Metabolic Activation: RAT, LIVER, S-9, KC 500",inactive; negative
same,mutagenic call,"Test System: E. COLI, Strain/Indicator: WP2 UVRA, Metabolic Activation: RAT, LIVER, S-9, KC 500, Method: PREINCUBATION",inactive; negative
ClC(Cl)=C(Cl)c1c(Cl)c(Cl)c(Cl)c(Cl)c1Cl,mutagenic call,"Test System: AMES SALMONELLA TYPHIMURIUM, Strain/Indicator: TA98, Metabolic Activation: NONE, Method: STANDARD PLATE",inactive; negative
same,mutagenic call,"Test System: AMES SALMONELLA TYPHIMURIUM, Strain/Indicator: TA98, Metabolic Activation: RAT, LIVER, S-9, AROCLOR 1254, Method: STANDARD PLATE",inactive; negative
same,mutagenic call,"Test System: AMES SALMONELLA TYPHIMURIUM, Strain/Indicator: TA100, Metabolic Activation: NONE, Method: STANDARD PLATE",inactive; negative
same,mutagenic call,"Test System: AMES SALMONELLA TYPHIMURIUM, Strain/Indicator: TA100, Metabolic Activation: RAT, LIVER, S-9, AROCLOR 1254, Method: STANDARD PLATE",inactive; negative
Cc1cc(O)c2c(c1)C(=O)c1c(O)c(O)cc(O)c1C2=O,mutagenic call,"Test System: AMES SALMONELLA TYPHIMURIUM, Strain/Indicator: TA1537, Metabolic Activation: NONE, Method: STANDARD PLATE",inactive; negative
same,mutagenic call,"Test System: AMES SALMONELLA TYPHIMURIUM, Strain/Indicator: TA1537, Metabolic Activation: RAT, LIVER, S-9, PCB, Method: STANDARD PLATE",active; positive
COc1nsc2ccc(N)cc12,mutagenic call,"Test System: AMES SALMONELLA TYPHIMURIUM, Strain/Indicator: TA100, Metabolic Activation: S-9, Method: STANDARD PLATE",active; positive
